Laboratory results published in patent US4400387A, “Indolizine derivatives and uses in therapeutics” (S. A. Labaz-Sanofi N.V., priority 1979, dated 1983).
Values belong to the compound of their own block, whether it stands above or below them.

Experiments:
[1] = biological target: T1, xanthine oxidase found in milk (Bos taurus, UniProt P80457); assay: Inhibition of the action of xanthine oxidase in vitro (U.V. spectrophotometry, formation of uric acid from hypoxanthine); format: biochemical; conditions: compound at a concentration of 10^-6 M
T1 construct: purchased
T1 sequence (P80457 whole entry): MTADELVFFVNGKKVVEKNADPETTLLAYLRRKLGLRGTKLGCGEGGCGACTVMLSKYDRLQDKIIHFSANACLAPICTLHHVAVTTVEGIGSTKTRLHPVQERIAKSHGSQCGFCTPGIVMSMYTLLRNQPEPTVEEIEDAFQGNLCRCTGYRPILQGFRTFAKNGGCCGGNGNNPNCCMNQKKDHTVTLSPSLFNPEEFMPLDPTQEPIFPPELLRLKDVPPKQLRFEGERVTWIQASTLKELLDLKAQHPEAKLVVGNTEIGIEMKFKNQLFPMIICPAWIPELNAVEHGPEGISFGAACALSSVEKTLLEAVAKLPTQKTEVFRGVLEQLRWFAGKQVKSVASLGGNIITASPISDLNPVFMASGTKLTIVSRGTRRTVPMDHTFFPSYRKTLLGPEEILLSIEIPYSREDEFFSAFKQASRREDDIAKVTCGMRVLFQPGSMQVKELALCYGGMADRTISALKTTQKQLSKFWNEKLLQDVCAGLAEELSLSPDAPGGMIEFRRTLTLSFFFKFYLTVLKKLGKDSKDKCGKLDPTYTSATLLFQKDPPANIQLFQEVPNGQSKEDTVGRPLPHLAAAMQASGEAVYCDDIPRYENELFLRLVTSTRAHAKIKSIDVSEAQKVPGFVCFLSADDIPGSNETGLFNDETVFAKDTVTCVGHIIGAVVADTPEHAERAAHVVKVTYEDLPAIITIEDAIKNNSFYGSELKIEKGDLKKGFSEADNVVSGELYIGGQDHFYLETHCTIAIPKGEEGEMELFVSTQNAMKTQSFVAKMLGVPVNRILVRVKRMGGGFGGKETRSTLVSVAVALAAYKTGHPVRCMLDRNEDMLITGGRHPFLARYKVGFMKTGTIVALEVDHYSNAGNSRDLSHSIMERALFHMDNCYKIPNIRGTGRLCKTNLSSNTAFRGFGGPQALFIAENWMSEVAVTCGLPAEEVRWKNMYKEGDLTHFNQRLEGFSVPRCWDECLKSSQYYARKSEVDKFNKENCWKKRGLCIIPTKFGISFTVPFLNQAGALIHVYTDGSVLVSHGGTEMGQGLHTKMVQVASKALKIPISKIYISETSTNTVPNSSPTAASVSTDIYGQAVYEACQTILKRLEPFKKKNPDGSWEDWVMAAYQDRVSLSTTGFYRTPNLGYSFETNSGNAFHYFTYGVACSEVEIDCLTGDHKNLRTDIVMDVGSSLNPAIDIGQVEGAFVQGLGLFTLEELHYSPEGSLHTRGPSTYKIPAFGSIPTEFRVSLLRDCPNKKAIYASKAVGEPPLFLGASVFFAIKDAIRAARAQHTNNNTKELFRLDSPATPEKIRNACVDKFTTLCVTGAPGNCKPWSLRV

[2] = biological target: T1, xanthine oxidase found in milk; assay: as above; format: biochemical; conditions: compound at 10^-5 M; hypoxanthine substrate, pH 7.4, 37° C.
Protocol: This trial was performed with xanthine oxidase found in milk. The activity of the enzymatic preparation was measured by following the formation of uric acid starting from hypoxanthine in the presence of oxygen and of a phosphate buffer solution.
(§1) The experimental procedure described hereunder was used:
In the absorption cell, the following solutions were introduced:
1.5 ml of a 0.1 molar phosphate buffer solution (pH=7.4) saturated with oxygen.
0.3 ml of a 1 m molar solution of ethylene diamine tetraacetate.
0.01 ml of a commercial xanthine oxidase solution having a known concentration in enzyme.
0.01 ml of a 3.10^-3 molar ethanolic solution of the compound to be tested.
The contents of the absorption cell were allowed to incubate for 2 minutes and then the enzymatic reaction was started by adding 0.3 ml of a 10^-3 molar solution of hypoxanthine to the absorption cell. The reaction was followed by spectrophotometric recording of the oxidation rate of hypoxanthine at 293 nm and at 37° C. The optical density was automatically registered. The same measurements were performed with a control solution containing all the ingredients referred to above except the compound being tested.
In this way, a curve representing the variation in optical density in comparison with time was obtained with the solution containing the inhibitor on the one hand and devoid of inhibitor on the other. The slope of both curves was measured and expressed in the number of mols of uric acid formed in one minute. Thus, it was possible to compare the values obtained and calculate, in percent, the inhibition of the activity of xanthine oxidase provoked by a compound of the invention.

[3] = biological target: T2, adenosine deaminase obtained from calf intestine (Bos taurus, UniProt P56658); assay: Inhibition of the action of adenosine deaminase in vitro (decrease in absorbance at 265 nm); format: biochemical; conditions: pH 7.4, 30° C.
T2 construct: purchased
T2 sequence (P56658 1-363): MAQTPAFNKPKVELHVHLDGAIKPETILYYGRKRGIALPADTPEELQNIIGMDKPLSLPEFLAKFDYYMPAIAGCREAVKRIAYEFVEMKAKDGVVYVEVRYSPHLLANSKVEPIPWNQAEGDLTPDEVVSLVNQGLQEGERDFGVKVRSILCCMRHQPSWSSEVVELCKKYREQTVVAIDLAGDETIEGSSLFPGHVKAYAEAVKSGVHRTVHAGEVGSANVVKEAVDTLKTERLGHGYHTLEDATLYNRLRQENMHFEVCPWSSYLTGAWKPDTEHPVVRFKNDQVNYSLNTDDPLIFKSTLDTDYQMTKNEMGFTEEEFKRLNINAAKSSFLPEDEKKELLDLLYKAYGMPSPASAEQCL
Protocol: This test was performed with adenosine deaminase obtained from calf intestine.
as §1
In the absorption cell the following solutions were introduced:
2.7 ml of a 0.1 molar phosphate buffer solution (pH=7.4)
0.3 ml of a 10^-4 or 5.10^-4 molar solution of adenosine in the phosphate buffer solution (final concentration in adenosine: 10^-5 or 5.10^-5 mol) 0.01 ml of a 3.10^-3 molar ethanolic solution of the compound to be studied (about 10 milliunits)
The contents of the absorption cell were allowed to incubate for 2 minutes and then the enzymatic reaction was started by adding 0.03 ml of a commercial adenosine deaminase solution having a known concentration in enzyme. The reaction was performed at 30° C. and followed by spectrophotometric recording of the decrease in absorbance at 265 nm due to the transformation of adenosine into inosine by means of adenosine deaminase. This enzymatic reaction can be represented by the following equation: [formula]
The same measurements were performed with a control solution containing all the ingredients referred to above except the compound being studied. Curves were then plotted representing the decrease in absorbance in comparison with time obtained on the one hand with the solution containing the inhibitor and on the other with the control solution.
The slope of both curves was measured and expressed in the number of mols of inosine formed in one minute. After that, the percent of inhibition of the activity of adenosine deaminase provoked by a compound of the invention was calculated.

[4] = biological target: T2, adenosine deaminase obtained from calf intestine; assay: as above; format: biochemical; conditions: compound at a concentration of 10^-6 M
[5] = biological target: T3, adenosine deaminase in ascites cells (Krebs II) (Mus musculus, UniProt P03958); assay: Inhibition of adenosine deamination in intact ascites cells (14C adenosine); format: cell-based; conditions: 14C adenosine 5.10^-5 M, read-out: concentration at which deamination of adenosine by ascites cells was 50% inhibited (converted)
T3 construct: tested in intact cells by incubating ascites cells (Krebs II); endogenous in cells; host or cells: Krebs II ascites cells
T3 sequence (P03958 1-352): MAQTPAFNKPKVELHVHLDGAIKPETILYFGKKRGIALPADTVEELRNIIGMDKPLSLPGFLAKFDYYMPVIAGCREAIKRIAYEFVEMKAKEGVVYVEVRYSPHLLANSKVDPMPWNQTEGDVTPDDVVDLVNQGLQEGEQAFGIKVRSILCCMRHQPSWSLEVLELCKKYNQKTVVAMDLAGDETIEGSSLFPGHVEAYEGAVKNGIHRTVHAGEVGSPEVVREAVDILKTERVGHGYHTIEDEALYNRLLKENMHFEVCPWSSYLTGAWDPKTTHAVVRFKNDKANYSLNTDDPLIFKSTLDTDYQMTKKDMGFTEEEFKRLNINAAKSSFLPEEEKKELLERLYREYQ
Protocol: The inhibition of the action of adenosine deaminase by these two above-cited compounds has also been tested in intact cells by incubating ascites cells (Krebs II) in the presence of ^14 C adenosine at a concentration of 5.10^-5 M and by measuring the formation of inosine and hypoxanthine ^14 C. The deamination of adenosine due to the ascites cells was 50% inhibited in the presence of 2.10^-6 M of 1-bromo-2-phenyl-3-(3-bromo-4-hydroxy-benzoyl)-indolizine and of 10^-6 M of 1-bromo-2-(4-fluoro-phenyl)-3-(3-bromo-4-hydroxy-benzoyl)-indolizine.

[6] = Acute toxicity tests in mice; format: in vivo; conditions: 20 mg/kg by intravenous route
Protocol: Acute toxicity tests were performed in mice with compounds of the invention.

HSV-1 (KOS) = assay: Herpetic skin lesions and mortality of nu/nu mice inoculated with HSV-1 (KOS), topical Ara-A and/or compound; format: in vivo; conditions: topical 1% in dimethylsulfoxide, 4 times daily days 0-4
Protocol: This test was carried out in order to determine the effects of adenine arabinoside (Ara-A) and compounds of the invention on the incidence of herpetic skin lesions and mortality of nu/nu mice inoculated with HSV-1 (KOS). Athymic nude (nu/nu) mice, 20 to 25 days old, were inoculated intracutaneously with HSV-1 (KOS) at about 10^4.5 PFU (plaque-forming units) per mouse. Ara-A and/or a compound of the invention were applied topically at 1% in dimethylsulfoxide, 4 times daily on days 0, 1, 2, 3 and 4. The number of mice with epidermal lesion (necrosis of at least 5 to 10 mm long) per total number of mice alive was registered.

[7] = Uricosuric action in humans after a single oral dose; format: in vivo; conditions: single oral dose 300 mg
Protocol: The uricosuric action was determined in humans after a single dose of 300 mg of 2-ethyl-3-(3,5-dibromo-4-hydroxy-benzoyl)-indolizine by oral route.

SMILES: CC(C)c1cc2ccccn2c1C(=O)c1cc(Cl)c(O)c(Cl)c1 [Isopropyl H Cl Cl, 2-Isopropyl-3-(3,5-dichloro-4-hydroxy-benzoyl)-indolizine]
Inhibition of the action of adenosine deaminase in vitro (in %) At 5.10^-5 M adenosine [3]: 76% | inhibition at 10 µM [2]: 96%

SMILES: O=C(c1ccc(O)c(Br)c1)c1c(-c2ccccc2)c(Br)c2ccccn12 [Phenyl Br Br H, 1-Bromo-2-phenyl-3-(3-bromo-4-hydroxy-benzoyl)-indolizine]
inhibition at 1 µM [4]: 80% | Inhibition of the action of adenosine deaminase in vitro (in %) At 5.10^-5 M adenosine [3]: 88% | Inhibition of the action of adenosine deaminase in vitro (in %) At 10^-5 M adenosine [3]: 100% | IC50 [5]: 2 µM | deaths after 14 days [6]: on death was registered | effect on the antiviral (anti-herpetic) activity of adenine arabinoside (Ara-A) (HSV-1 (KOS)): potentiates the antiviral activity of adenine arabinoside

SMILES: O=C(c1ccc(O)c(Br)c1)c1c(-c2ccc(F)cc2)c(Br)c2ccccn12 [4-Fluoro-phenyl Br Br H, 1-Bromo-2-(4-fluoro-phenyl)-3-(3-bromo-4-hydroxy-benzoyl)-indolizine]
inhibition at 1 µM [4]: 86% | Inhibition of the action of adenosine deaminase in vitro (in %) At 5.10^-5 M adenosine [3]: 94% | Inhibition of the action of adenosine deaminase in vitro (in %) At 10^-5 M adenosine [3]: 100% | IC50 [5]: 1 µM | deaths after 14 days [6]: on death was registered

SMILES: CCc1cc2ccccn2c1C(=O)c1ccc(O)c(Cl)c1 [Ethyl H H Cl, 2-Ethyl-3-(3-chloro-4-hydroxy-benzoyl)-indolizine]
inhibition at 10 µM [2]: 87%

SMILES: O=C(c1ccc(O)c(Cl)c1)c1c(-c2cccc(Br)c2)cc2ccccn12 [3-Bromo-phenyl H H Cl, 2-(3-Bromo-phenyl)-3-(3-chloro-4-hydroxy-benzoyl)-indolizine]
inhibition at 10 µM [2]: 23%

SMILES: CCCc1c(Br)c2ccccn2c1C(=O)c1cc(Br)c(O)c(Br)c1 [n-Propyl Br Br Br, 1-Bromo-2-n-propyl-3-(3,5-dibromo-4-hydroxy-benzoyl)-indolizine]
inhibition at 10 µM [2]: 95%

SMILES: CC(C)c1cc2ccccn2c1C(=O)c1ccc(O)c(Cl)c1 [Isopropyl H H Cl, 2-Isopropyl-3-(3-chloro-4-hydroxy-benzoyl)-indolizine]
inhibition at 10 µM [2]: 88%

SMILES: O=C(c1cc(Br)c(O)c(Br)c1)c1c(-c2ccccc2)c(Br)c2ccccn12 [Phenyl Br Br Br, 1-Bromo-2-phenyl-3-(3,5-dibromo-4-hydroxy-benzoyl)-indolizine]
Inhibition of the action of adenosine deaminase in vitro (in %) At 5.10^-5 M adenosine [3]: 22% | Inhibition of the action of adenosine deaminase in vitro (in %) At 10^-5 M adenosine [3]: 53% | inhibition at 10 µM [2]: 48%

SMILES: CCc1cc2ccccn2c1C(=O)c1cc(Br)c(O)c(Br)c1 [Ethyl H Br Br, 2-Ethyl-3-(3,5-dibromo-4-hydroxy-benzoyl)-indolizine]
Tmax ([7]; human, plasma, read-out: time of highest plasmatic level): 5 h | mean increase of urinary excretion of uric acid in 24 hours ([7]; 24 hours): 22% | lowering of uricemia ([7]; by the 5th hour): 9% | increase of urinary excretion of uric acid ([7]; period between 12th and 24th hour): 40% | inhibition at 10 µM [2]: 98%

SMILES: O=C(c1cc(Br)c(O)c(Br)c1)c1c(-c2ccc(Br)cc2)cc2ccccn12 [4-Bromo-phenyl H Br Br, 2-(4-Bromo-phenyl)-3-(3,5-dibromo-4-hydroxy-benzoyl)-indolizine]
inhibition at 10 µM [2]: 23%

Results, then the compound that gave them:

inhibition at 1 µM [1]: 84% | inhibition at 10 µM [2]: 99%
SMILES: CC(C)c1cc2ccccn2c1C(=O)c1cc(Br)c(O)c(Br)c1 [Isopropyl H Br Br, 2-Isopropyl-3-(3,5-dibromo-4-hydroxy-benzoyl)-indolizine]

inhibition at 10 µM [2]: 84%
SMILES: Cc1cc2ccccn2c1C(=O)c1cc(Cl)c(O)c(Cl)c1 [Methyl H Cl Cl, 2-Methyl-3-(3,5-dichloro-4-hydroxy-benzoyl)-indolizine]

inhibition at 10 µM [2]: 98%
SMILES: CCc1cc2ccccn2c1C(=O)c1cc(Cl)c(O)c(Cl)c1 [Ethyl H Cl Cl, 2-Ethyl-3-(3,5-dichloro-4-hydroxy-benzoyl)-indolizine]

inhibition at 10 µM [2]: 91%
SMILES: Cc1cc2ccccn2c1C(=O)c1cc(Br)c(O)c(Br)c1 [Methyl H Br Br, 2-Methyl-3-(3,5-dibromo-4-hydroxybenzoyl)-indolizine]

inhibition at 10 µM [2]: 80%
SMILES: COc1ccc(-c2c(Br)c3ccccn3c2C(=O)c2ccc(O)c(Br)c2)cc1 [4-Methoxy-phenyl Br Br H, 1-Bromo-2-(4-methoxy-phenyl)-3-(3-bromo-4-hydroxy-benzoyl)-indolizine]
